Data on twelve compounds can be found in ChEMBL document CHEMBL1201862, “PubChem BioAssay data set” (2004).

Where “and” joins values, the source holds several entries; their conditions need not be identical. Identical values can stand only once.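 Five compound concentrations were applied to cells in 96-well plates for 48 hours; endpoints were derived by simple linear interpolation of the resulting dose-response curve. The concentration for 50% growth inhibition is given as GI50.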 Calls of active or inactive are those of the source. No stated cut-off is given here; in the data, active = GI50 up to about 1.1 µM and inactive = higher.

Among the test systems are OVCAR-8; HCT-15; A498; NCI-H226; HL-60; HCT-116; 786-0; MOLT-4; CAKI-1; T47D; RXF 393; SK-MEL-2; PC-3; SW-620; ACHN; HT-29; NCI-H460; SK-MEL-5; MDA-N.
Assay in all cases: NCI-60 cell line screen, 48 h

For the compound `Oc1ccc(C[C@@H]2CN[C@H](Cc3ccc(O)c(Br)c3)CN2)cc1`, the GI50 was > 100 µM (inactive) in the assay on OVCAR-8; over 100 µM with HCT-15; > 100 µM (inactive) in the assay on A498; > 100 µM (inactive) in the assay with NCI-H226; > 100 µM (inactive) in the assay on HL-60; > 100 µM (inactive) in the assay with HCT-116. In addition, the GI50 is > 100 µM (inactive) in the assay with 786-0; > 100 µM (inactive) in the assay on MOLT-4; > 100 µM (inactive) with CAKI-1; > 100 µM (inactive) in the assay on T47D; 84.3 µM (inactive) with RXF 393; > 100 µM (inactive) in the assay with SK-MEL-2. The GI50 with PC-3, in the assay on SW-620, in the assay on ACHN and with HT-29 was > 100 µM (inactive) in each case.
In the case of `CN1C(=O)C(C(N)=O)C2CC1(C)Oc1ccccc12` (configuration not stated), the GI50 was > 100 µM (inactive) in the assay on NCI-H460; > 100 µM (inactive) with OVCAR-8; over 100 µM in the assay with HCT-15; > 100 µM (inactive) with SK-MEL-5; > 100 µM (inactive) in the assay on A498; > 100 µM (inactive) in the assay on NCI-H226. The GI50 in the assay with HL-60, with HCT-116, with 786-0, in the assay on MOLT-4, in the assay on CAKI-1 and in the assay with T47D was > 100 µM (inactive) in each case. For the same compound, the GI50 in the assay on RXF 393, in the assay with SK-MEL-2, with PC-3, in the assay with SW-620, in the assay with ACHN and in the assay with HT-29 was > 100 µM (inactive) in each case.
Turning to `Nc1cccc(CCN2CCN(CCCc3ccccc3)CC2)c1`, the GI50 in the assay with NCI-H460 is 25.4 µM (inactive); in the assay on OVCAR-8, 22.6 µM (inactive); in the assay with HCT-15 it was 18 µM; in the assay with SK-MEL-5, 20.1 µM (inactive); in the assay on A498 it was 47.5 µM (inactive); in the assay on NCI-H226, 70 µM (inactive). Besides, the GI50 is 17.2 µM (inactive) with HL-60; 17.6 µM (inactive) in the assay on HCT-116; 18.2 µM (inactive) with 786-0; 30.5 µM (inactive) in the assay with MOLT-4; 53.3 µM (inactive) with CAKI-1; 20.3 µM (inactive) with T47D. Also, the GI50 in the assay with RXF 393 was 21.2 µM (inactive); in the assay with SK-MEL-2, > 100 µM (inactive); in the assay on PC-3 it was 70.1 µM (inactive); in the assay with SW-620, 30.5 µM (inactive); in the assay on ACHN, > 100 µM (inactive); in the assay with HT-29, 13.7 µM (inactive).
Take `Oc1ccc(Br)cc1/C=N/c1c(NC2CCCCC2)oc2ccc(Br)cc12`: the GI50 was 50.5 µM (inactive) in the assay with NCI-H460; 37.4 µM (inactive) in the assay with OVCAR-8; 25.1 µM in the assay on HCT-15; 40.6 µM (inactive) in the assay on SK-MEL-5; 35.3 µM (inactive) in the assay on A498; 45.3 µM (inactive) in the assay on NCI-H226. For the same compound, the GI50 was 5.53 µM (inactive) in the assay with HL-60; 13.7 µM (inactive) in the assay with HCT-116; 37.8 µM (inactive) with 786-0; 7.21 µM (inactive) in the assay with MOLT-4; 36.8 µM (inactive) in the assay on CAKI-1; 8.34 µM (inactive) in the assay on T47D. Besides, the GI50 was 12.9 µM (inactive) in the assay on RXF 393; 32.6 µM (inactive) with MDA-N; 35.3 µM (inactive) with SW-620; 35.8 µM (inactive) in the assay on ACHN; 26.8 µM (inactive) in the assay with HT-29.
In the case of `O=C(NCCCCNCCCNC(=O)OCc1ccccc1)OCc1ccccc1`, the GI50 in the assay with NCI-H460 was 23.6 µM (inactive); with OVCAR-8 it was 26.8 µM (inactive); with HCT-15, 61.5 µM; in the assay on SK-MEL-5, 16.9 µM (inactive); in the assay on A498 it was 17.4 µM (inactive); in the assay with NCI-H226 it was 32 µM (inactive). Besides, the GI50 in the assay with HL-60 was 20.3 µM (inactive); with HCT-116, 24.5 µM (inactive); in the assay with 786-0, 21.9 µM (inactive); in the assay on MOLT-4, 26.9 µM (inactive); in the assay with T47D, 18.9 µM (inactive); in the assay with RXF 393 it was 16.5 µM (inactive). Moreover, the GI50 in the assay with SK-MEL-2 is 21 µM (inactive); in the assay on PC-3, 27.2 µM (inactive); with SW-620 it was 61.7 µM (inactive); with ACHN it was 43.4 µM (inactive); in the assay with HT-29 it was 18 µM (inactive).
Regarding `Cc1cc(-c2cc(C)c(O)c(C(C)(C)C)c2)cc(C(C)(C)C)c1O`, the GI50 with NCI-H460 was 6.68 µM (inactive) and 5.46 µM (inactive); with OVCAR-8, 15.4 µM (inactive) and 13.4 µM (inactive); in the assay on SK-MEL-5, 10.6 µM (inactive) and 14.7 µM (inactive); in the assay on A498, 9.4 µM (inactive) and 17.1 µM (inactive); with NCI-H226, 10.7 µM (inactive) and 19.8 µM (inactive); in the assay with HL-60, 12 µM (inactive). In addition, the GI50 in the assay with HCT-116 is 6.21 µM (inactive) and 10.9 µM (inactive); in the assay with 786-0 it was 10.7 µM (inactive) and 13.1 µM (inactive); in the assay on MOLT-4 it was 5.79 µM (inactive) and 5.86 µM (inactive); in the assay on CAKI-1, 14.6 µM (inactive) and 9.66 µM (inactive); in the assay on T47D it was 4.53 µM (inactive) and 7 µM (inactive); in the assay on RXF 393 it was 13.4 µM (inactive) and 11 µM (inactive). Further, the GI50 with MDA-N was 14.7 µM (inactive) and 8.65 µM (inactive); in the assay with SK-MEL-2 it was 6.31 µM (inactive) and 12.2 µM (inactive); in the assay with SW-620 it was 16.4 µM (inactive) and 11 µM (inactive); in the assay on ACHN, 10.6 µM (inactive) and 15.7 µM (inactive); in the assay on HT-29, 3.24 µM (inactive) and 3.82 µM (inactive).
For `CCOP(=O)(C[S+](C)[O-])O[C@@H]1C[C@H](C)CC[C@H]1C(C)C` (some centres not stated), the GI50 was 4.5 µM (inactive) in the assay with NCI-H460; 4.48 µM (inactive) with OVCAR-8; 2.71 µM in the assay with HCT-15; 2.25 µM (inactive) in the assay with SK-MEL-5; 3.92 µM (inactive) with NCI-H226; 3.48 µM (inactive) with HL-60. Besides, the GI50 was 2.75 µM (inactive) with HCT-116; 2.73 µM (inactive) with 786-0; 5.18 µM (inactive) in the assay on MOLT-4; 2.88 µM (inactive) in the assay with CAKI-1; 4.6 µM (inactive) in the assay with T47D; 2.59 µM (inactive) in the assay on RXF 393. In addition, the GI50 in the assay on MDA-N was 2.86 µM (inactive); in the assay on SK-MEL-2, 4.47 µM (inactive); in the assay on PC-3, 6.61 µM (inactive); in the assay with SW-620, 3.72 µM (inactive); in the assay with ACHN, 4.43 µM (inactive).
Turning to `CSC(SC)=C(C#N)C(=O)Nc1ccc(C)cc1`, the GI50 is > 100 µM (inactive) in the assay with NCI-H460; over 100 µM in the assay with HCT-15; > 100 µM (inactive) in the assay on SK-MEL-5; > 100 µM (inactive) in the assay with NCI-H226; 37.2 µM (inactive) with HL-60; 49.5 µM (inactive) in the assay on HCT-116. Further, the GI50 in the assay on 786-0 is > 100 µM (inactive); in the assay on MOLT-4, 95.5 µM (inactive); in the assay on CAKI-1 it was 42.8 µM (inactive); with T47D, > 100 µM (inactive); in the assay on RXF 393 it was > 100 µM (inactive); with MDA-N it was > 100 µM (inactive). For the same compound, the GI50 in the assay with SK-MEL-2, in the assay with PC-3, in the assay with SW-620, in the assay on ACHN and in the assay on HT-29 was > 100 µM (inactive) throughout.
As for `O=C(CCC(NC(=O)OCc1ccccc1)C(=O)OCc1ccccc1)Nc1ccc(OCc2ccccc2)cc1` (configuration not stated), the GI50 in the assay with NCI-H460 was 15.6 µM (inactive); in the assay on OVCAR-8, 14.1 µM (inactive); in the assay on HCT-15, 13.1 µM; in the assay with SK-MEL-5, > 10 µM (inactive); with A498 it was > 10 µM (inactive); in the assay on NCI-H226, > 31.6 µM (inactive). Besides, the GI50 in the assay on HL-60 was > 31.6 µM (inactive); with HCT-116, 11.4 µM (inactive); in the assay with 786-0, 12.6 µM (inactive); in the assay with MOLT-4 it was 24.6 µM (inactive); with CAKI-1, > 31.6 µM (inactive); in the assay with T47D, 18.8 µM (inactive). Also, the GI50 in the assay with RXF 393 was 28.3 µM (inactive); in the assay with SK-MEL-2 it was > 10 µM (inactive); in the assay with PC-3 it was 13.2 µM (inactive); in the assay on SW-620 it was 25.7 µM (inactive); with ACHN, 29.6 µM (inactive); in the assay with HT-29, 26.6 µM (inactive).
With `Oc1nc2ccccc2c(O)c1Cc1ccccc1`, the GI50 is > 100 µM (inactive) in the assay with NCI-H460; > 100 µM (inactive) in the assay with OVCAR-8; over 100 µM in the assay with HCT-15; > 100 µM (inactive) in the assay with SK-MEL-5; > 100 µM (inactive) in the assay on A498; > 100 µM (inactive) in the assay with NCI-H226. Also, the GI50 in the assay on HL-60, in the assay with HCT-116, in the assay on 786-0, with MOLT-4, with CAKI-1 and with RXF 393 was > 100 µM (inactive) in each case. The GI50 in the assay on MDA-N, with PC-3, in the assay with SW-620, in the assay with ACHN and in the assay with HT-29 was > 100 µM (inactive) in each case.
In the case of `Cc1ccc(S(=O)(=O)NC(=O)NC(CCCCN)C(=O)O)cc1` (configuration not stated), the GI50 in the assay with NCI-H460 is > 100 µM (inactive); with OVCAR-8 it was > 100 µM (inactive); with HCT-15, over 100 µM; in the assay with SK-MEL-5, > 100 µM (inactive); in the assay on HL-60 it was > 100 µM (inactive); in the assay on HCT-116, > 100 µM (inactive). Also, the GI50 in the assay with 786-0, in the assay with MOLT-4, with T47D, in the assay with RXF 393, with MDA-N and in the assay with SK-MEL-2 was > 100 µM (inactive) each time. In addition, the GI50 with PC-3, with SW-620 and in the assay with ACHN was > 100 µM (inactive) in each case.
With `CC(C)Oc1ccc(CNC2=NCCO2)c2ccccc12`, the GI50 in the assay on NCI-H460 is 12.4 µM (inactive); in the assay with OVCAR-8, 15.2 µM (inactive); with HCT-15 it was 15.6 µM; with SK-MEL-5, 12.9 µM (inactive); in the assay with A498, 10.2 µM (inactive); in the assay on NCI-H226, 15.7 µM (inactive). In addition, the GI50 is 8.63 µM (inactive) in the assay with HL-60; 12.6 µM (inactive) with HCT-116; 13.6 µM (inactive) in the assay on 786-0; 4.85 µM (inactive) with MOLT-4; 11.9 µM (inactive) with T47D; 13.8 µM (inactive) with RXF 393. For the same compound, the GI50 is 15.3 µM (inactive) in the assay with SW-620, 14 µM (inactive) in the assay with ACHN and 4.01 µM (inactive) in the assay on HT-29.
